How the values were obtained:
Format in all cases: in vivo
[1] = tested on: blackgrass (Alopecurus myosuroides); assay: Test A1 preemergence, blackgrass
How it was run: (§1)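 Pre: seeds in loam/sand blend, directed soil spray. Post: potted plants, same soil, 2–10 cm, 1–2 leaf stage. Chemicals in non-phytotoxic solvent + surfactant for both.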

[2] = tested on: Foxtail, Giant (giant foxtail, Setaria faberi); assay: Test A1 postemergence, Foxtail, Giant; details: Postemergence
How it was run: (§2)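 Plants grown in pots of loam/sand mix; preemergence = soil-directed spray on seeded pots, postemergence = spray at 1–2 leaves, height 2–10 cm; test chemicals formulated in non-phytotoxic solvent with surfactant.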

[3] = tested on: Pigweed, Palmer (palmer amaranth, palmer pigweed, Amaranthus palmeri); assay: Test A1 postemergence, Pigweed, Palmer; details: Postemergence
How it was run: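 Both timings started from seed in a loam-sand blend. Preemergence pots got a directed soil application immediately; postemergence pots were sprayed when seedlings had one or two leaves and stood 2–10 cm. Each compound was prepared in a non-phytotoxic solvent plus surfactant.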

[4] = tested on: Ryegrass, Italian (Italian ryegrass, Lolium multiflorum); assay: Test A1 postemergence, Ryegrass, Italian; details: Postemergence
How it was run: as §2

[5] = tested on: goosegrass (Eleusine indica); assay: Test A1 postemergence, goosegrass; details: Postemergence
How it was run: as §2

rice (Oryza sativa) = assay: Test B1 flooded paddy test, rice; details: 250 g ai/ha, Flood, applied to paddy water, 2-leaf stage, visually evaluated after 10 to 14 days
Text: A dash (-) response means no test result.

[6] = tested on: goosegrass (Eleusine indica); assay: Test A1 preemergence, goosegrass
How it was run: as §1

[7] = tested on: blackgrass (Alopecurus myosuroides); assay: Test A1 postemergence, blackgrass; details: Postemergence, 0 to 100 scale (0 no effect, 100 complete control)
How it was run: as §2

[8] = tested on: wheat (Triticum aestivum); assay: Test A1 preemergence, wheat
How it was run: as §1

[9] = 31 g ai/ha, 0 to 100 scale (0 no effect, 100 complete control)
[10] = 125 g ai/ha, 0 to 100 scale, 0 no effect, 100 complete control
[11] = 31 g ai/ha, 0 to 100 scale (0 no effect, 100 complete control), 10 days

SMILES | Plant response rating, Blackgrass [1, 9] | Plant response rating, Blackgrass [1, 10] | Plant response rating, Foxtail, Giant [2, 11] | Plant response rating, Foxtail, Giant ([2]; 125 g ai/ha, 0 to 100 scale) | Plant response rating, Pigweed, Palmer [3, 11] | Plant response rating, Pigweed, Palmer ([3]; 125 g ai/ha, 0 to 100 scale) | Plant response rating, Ryegrass, Italian [4, 11] | Plant response rating, Ryegrass, Italian ([4]; 125 g ai/ha, 0 to 100 scale) | Plant response rating, Goosegrass [5, 11] | Plant response rating, Goosegrass ([5]; 125 g ai/ha, 0 to 100 scale) | Plant response rating, Rice (0 to 100 scale, 0 is no effect, 100 is complete control) (rice (Oryza sativa)) | Plant response rating, Goosegrass [6, 9] | Plant response rating, Goosegrass [6, 10] | Plant response rating, Blackgrass ([7]; 31 g ai/ha, 10 days) | Plant response rating, Blackgrass ([7]; 125 g ai/ha) | Plant response rating, Wheat [8, 9] | Plant response rating, Wheat [8, 10]
Cc1c(C(=O)N2CCOCC2)cc(N(COC(=O)C(C)(C)C)S(=O)(=O)C(F)(F)F)c(C)c1C [Compound 324, [[(Trifluoromethyl)sulfonyl][2,3,4-trimethyl-5-(4-morpholinylcarbonyl)phenyl]amino]methyl 2,2-dimethylpropanoate] | 20 | 30 | 20 | 90 | 30 | 70 | 0 | 30 | 30 | 80 | 0 | 80 | 100 | 0 | 0 | 0 | 70
CCC1ON=C(c2cc(N(C(=O)OCC(C)C)S(=O)(=O)C(F)(F)F)c(C)cc2C)C1CC (stereo not drawn) [Compound 345] | 40 | 70 | 30 | 50 | 40 | 60 | 20 | 60 | 0 | 70 | 25 | 30 | 90 | 20 | 40 | 30 | 10
CCC1ON=C(c2cc(N(COC(=O)C(C)(C)C)S(=O)(=O)C(F)(F)F)c(C)cc2C)C1CC (stereo not drawn) [Compound 344] | 0 | 30 | 10 | 30 | 20 | 50 | 30 | 40 | 0 | 30 | 40 | 20 | 90 | 0 | 50 | 0 | 0
Cc1cc(C)c(N(COC(=O)C(C)(C)C)S(=O)(=O)C(F)(F)F)cc1C1=NOC2(C)CCCC12 (stereo not drawn) [Compound 341] | 0 | 30 | 0 | 20 | 0 | 20 | 0 | 0 | 0 | 60 | 55 | 30 | 100 | 0 | 0 | 0 | 0
CCC1ON=C(c2cc(NS(=O)(=O)C(F)(F)F)c(C)cc2C)C1CC (stereo not drawn) [Compound 346] | 80 | 90 | 30 | 50 | 20 | 50 | 0 | 80 | 40 | 90 | 15 | 90 | 100 | 0 | 60 | 20 | 70
C#CCN(C)C(=O)c1cc(NS(=O)(=O)C(F)(F)F)c(Cl)c(F)c1C [Compound 337] | 40 | 60 | 0 | 90 | 30 | 50 | 0 | 20 | 0 | 90 | 25 | 50 | 100 | 0 | 30 | 10 | 60

— patent US20230278972A1, “SUBSTITUTED HALOALKYL SULFONANILIDE HERBICIDES” (FMC Corporation, priority 2020, published 2023)
